The source made the active and inactive calls. No rule for the calls is given here.
Tested on: rodent carcinogenicity bioassays, tumor incidence
Assay: CCRIS carcinogenicity studies
How it was run: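 NCI-built, expert-reviewed records of carcinogenicity and related test outcomes (mutagenicity, tumor promotion/inhibition) compiled from published and report sources, historical span 1985-2011, not updated.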

In the case of `O=c1cc[nH]c(=O)[nH]1`, the carcinogen call (Species: MOUSE, Strain/Sex: B6C3F1/FEMALE, Route: ORAL, Dose: 0, 3% IN DIET FOR WK 1-6 OF STUDY THEN 0, 2.5% IN DIET FOR WK 7-96 (STUDY DURATION: 96 WK), Dose: 0, 3% IN DIET FOR WK 1-6 OF STUDY THEN 0, 2.5% IN DIET FOR WK 7-96 (STUDY DURATION: 96 WK), Tumor Site: Type of Lesion: URINARY BLADDER: TRANSITIONAL CELL CARCINOMA) is reported as “active; positive”, the carcinogen call (Species: MOUSE, Strain/Sex: B6C3F1/MALE, Route: ORAL, Dose: 0, 3% IN DIET FOR WK 1-6 OF STUDY THEN 0, 2.5% IN DIET FOR WK 7-96 (STUDY DURATION: 96 WK), Dose: 0, 3% IN DIET FOR WK 1-6 OF STUDY THEN 0, 2.5% IN DIET FOR WK 7-96 (STUDY DURATION: 96 WK)) is reported as “inactive; negative” and the carcinogen call (Species: RAT, Strain/Sex: F344/FEMALE, Route: ORAL, Dose: 0, 3% IN DIET FOR 104 WK (STUDY DURATION: 104 WK), Tumor Site: Type of Lesion: URINARY BLADDER: TRANSITIONAL CELL CARCINOMA) is reported as “active; positive”. The carcinogen call (Species: RAT, Strain/Sex: F344/MALE, Route: ORAL, Dose: 0, 3% IN DIET FOR 104 WK (STUDY DURATION: 104 WK), Tumor Site: Type of Lesion: URINARY BLADDER: TRANSITIONAL CELL PAPILLOMA, TRANSITIONAL CELL CARCINOMA, RENAL PELVIS: PAPILLOMA, CARCINOMA) was “active; positive”.
`OCc1ccc2ccc3cccc4ccc1c2c34` was tested, and the carcinogen call (Species: RAT, Strain/Sex: SPRAGUE-DAWLEY/FEMALE, Route: SUBCUTANEOUS, Dose: 0, 0.2 UMOL IN 0.1 ML SESAME OIL:DMSO (9:1) 1/2 D FOR 20 DOSES (STUDY DURATION: 52 WK)) was “inactive; negative”.
`CCOC(=O)C(C(=O)OCC)=C(NO)c1ccccc1` was tested, and the carcinogen call (Species: Mouse, Strain/Sex: Swiss Albino/Female (60/sex/group), Route: Oral, Dose: 0, 10, 30, 100 ppm in feed for 18 mo, Dose: 0, 10, 30, 100 ppm in feed for 18 mo) was “inactive; negative; purity 97%”, the carcinogen call (Species: Mouse, Strain/Sex: Swiss Albino/Male (60/sex/group), Route: Oral, Dose: 0, 10, 30, 100 ppm in feed for 18 mo, Dose: 0, 10, 30, 100 ppm in feed for 18 mo, Tumor Site: Type of Lesion: Liver: Hepatocellular adenoma (2/47, 4/48, 3/49, 5/53), Hepatocellular carcinoma (0/47, 0/48, 2/49, 4/53), Combined (2/4, Tumor Site: Type of Lesion: Liver: Hepatocellular adenoma (2/47, 4/48, 3/49, 5/53), Hepatocellular carcinoma (0/47, 0/48, 2/49, 4/53), Combined (2/4) was “active; positive (statistically significant trend but not incidence); purity 97%” and the carcinogen call (Species: Rat, Strain/Sex: Sprague-Dawley /Female (70/sex/group in dosed animals; 105 controls/sex), Route: Oral, Dose: 0, 60, 190, 600 ppm in feed for 104 wks, Dose: 0, 60, 190, 600 ppm in feed for 104 wks) was “inactive; negative: purity 98.5%; liver: nonneoplastic liver lesions (eosinophilic cellula”. For the same compound, the carcinogen call (Species: Rat, Strain/Sex: Sprague-Dawley /Male (70/sex/group in dosed animals; 105 controls/sex), Route: Oral, Dose: 0, 60, 190, 600 ppm in feed for 104 wks, Dose: 0, 60, 190, 600 ppm in feed for 104 wks) was “inactive; negative: purity 98.5%; liver: nonneoplastic liver lesions (eosinophilic cellula”.
In the case of `CCNc1nc(Cl)nc(NC(C)(C)C#N)n1`, the carcinogen call (Species: Mouse, Strain/Sex: CD/Female (50 per group; 100 per group for controls), Route: Oral, Dose: 0, 10, 25, 1,000 ppm of 98% pure cyanazine in feed for two yr, Dose: 0, 10, 25, 1,000 ppm of 98% pure cyanazine in feed for two yr) is reported as “inactive; negative”, the carcinogen call (Species: Mouse, Strain/Sex: CD/Male (50 per group; 100 per group for controls), Route: Oral, Dose: 0, 10, 25, 1,000 ppm of 98% pure cyanazine in feed for two yr, Dose: 0, 10, 25, 1,000 ppm of 98% pure cyanazine in feed for two yr) is reported as “inactive; negative” and the carcinogen call (Species: RAT, Strain/Sex: CRL:CD BR/FEMALE, Route: ORAL, Dose: 0, 1, 5, 25, 50 PPM FOR 104 WK (STUDY DURATION: 104 WK), Dose: 0, 1, 5, 25, 50 PPM FOR 104 WK (STUDY DURATION: 104 WK)) is reported as “inactive; negative”.
In the case of `ClC1(Cl)C2(Cl)C3(Cl)C4(Cl)C(Cl)(Cl)C5(Cl)C3(Cl)C1(Cl)C5(Cl)C24Cl` (stereo not given), the carcinogen call (Species: MOUSE, Strain/Sex: B6AKF1/MALE,FEMALE, Route: GAVAGE/ORAL, Dose: 10 MG/KG FROM D 7- 28 OF LIFE THEN 26 PPM IN DIET, Tumor Site: Type of Lesion: LIVER: HEPATOMA) is reported as “active; positive”, the carcinogen call (Species: MOUSE, Strain/Sex: B6C3F1/MALE,FEMALE, Route: GAVAGE/ORAL, Dose: 10 MG/KG FROM D 7- 28 OF LIFE THEN 26 PPM IN DIET, Tumor Site: Type of Lesion: LIVER: HEPATOMA) is reported as “active; positive” and the carcinogen call (Species: RAT, Route: ORAL, Tumor Site: Type of Lesion: LIVER) is reported as “active; positive”. For the same compound, the carcinogen call (Species: RAT, Strain/Sex: F344/FEMALE, Route: ORAL, Dose: 0, 0.1, 1, 10, 25, 50 PPM IN FEED FOR 104 WK (STUDY DURATION: 105 WK), Dose: 0, 0.1, 1, 10, 25, 50 PPM IN FEED FOR 104 WK (STUDY DURATION: 105 WK), Tumor Site: Type of Lesion: HEMATOPOIETIC SYSTEM: MONONUCLEAR CELL LEUKEMIA) was “active; positive”, the carcinogen call (Species: RAT, Strain/Sex: F344/FEMALE, Route: ORAL, Dose: 0, 50, 100 PPM IN FEED FOR 104 WK (STUDY DURATION: 106 WK), Dose: 0, 50, 100 PPM IN FEED FOR 104 WK (STUDY DURATION: 106 WK), Tumor Site: Type of Lesion: HEMATOPOIETIC SYSTEM: MONONUCLEAR CELL LEUKEMIA, LIVER: NEOPLASTIC NODULE, NEOPLASTIC NODULE OR HEPATOCELLULAR CARCINOMA) was “active; positive” and the carcinogen call (Species: RAT, Strain/Sex: F344/MALE, Route: ORAL, Dose: 0, 0.1, 1, 10, 25, 50 PPM IN FEED FOR 104 WK (STUDY DURATION: 105 WK), Dose: 0, 0.1, 1, 10, 25, 50 PPM IN FEED FOR 104 WK (STUDY DURATION: 105 WK), Tumor Site: Type of Lesion: LIVER: NEOPLASTIC NODULE, NEOPLASTIC NODULE OR HEPATOCELLULAR CARCINOMA, ADRENAL GLAND: PHEOCHROMOCYTOMA, PHEOCHROMOCYTO) was “active; positive”.
`O=C1Nc2ccc(Cl)cc2C(c2ccccc2)=NC1O` (stereo not given) was tested, and the carcinogen call (Species: MOUSE, Strain/Sex: B6C3F1/FEMALE, Route: ORAL, Dose: 0, 125, 2500, 5000 PPM IN FEED FOR 104-105 WK (STUDY DURATION: 105 WK), Dose: 0, 125, 2500, 5000 PPM IN FEED FOR 104-105 WK (STUDY DURATION: 105 WK), Tumor Site: Type of Lesion: LIVER: HEPATOBLASTOMA, HEPATOCELLULAR ADENOMA, HEPATOCELLULAR CARCINOMA, THYROID: FOLLICULAR CELL ADENOMA) was “active; positive”, the carcinogen call (Species: MOUSE, Strain/Sex: B6C3F1/MALE, Route: ORAL, Dose: 0, 125, 2500, 5000 PPM IN FEED FOR 104-105 WK (STUDY DURATION: 105 WK), Dose: 0, 125, 2500, 5000 PPM IN FEED FOR 104-105 WK (STUDY DURATION: 105 WK), Tumor Site: Type of Lesion: LIVER: HEPATOBLASTOMA, HEPATOCELLULAR ADENOMA, HEPATOCELLULAR CARCINOMA) was “active; positive” and the carcinogen call (Species: MOUSE, Strain/Sex: SWISS-WEBSTER/FEMALE, Route: ORAL, Dose: 0, 2500, 5000 PPM IN FEED FOR 57 WK (STUDY DURATION: 57 WK), Dose: 0, 2500, 5000 PPM IN FEED FOR 57 WK (STUDY DURATION: 57 WK), Tumor Site: Type of Lesion: LIVER: HEPATOCELLULAR ADENOMA, HEPATOCELLULAR CARCINOMA) was “active; positive”. For the same compound, the carcinogen call (Species: MOUSE, Strain/Sex: SWISS-WEBSTER/MALE, Route: ORAL, Dose: 0, 2500, 5000 PPM IN FEED FOR 57 WK (STUDY DURATION: 57 WK), Dose: 0, 2500, 5000 PPM IN FEED FOR 57 WK (STUDY DURATION: 57 WK), Tumor Site: Type of Lesion: LIVER: HEPATOCELLULAR ADENOMA, HEPATOCELLULAR CARCINOMA) was “active; positive”, the carcinogen call (Species: MOUSE, Strain/Sex: SWISS/MALE,FEMALE, Route: ORAL, Dose: 0.05, 0.15% IN DIET FOR 9 MO, Tumor Site: Type of Lesion: LIVER: HEPATOCELLULAR ADENOMA) was “active; positive” and the carcinogen call (Species: RAT, Strain/Sex: F344/FEMALE, Route: ORAL, Dose: 0, 625, 2500, 5000 PPM FOR 105 WK (STUDY DURATION: 105 WK), Dose: 0, 625, 2500, 5000 PPM FOR 105 WK (STUDY DURATION: 105 WK)) was “inactive; negative”. The carcinogen call (Species: RAT, Strain/Sex: F344/FEMALE, Route: ORAL, Dose: 0, 625, 2500, 5000 PPM IN DIET FOR 105 WK (STUDY DURATION: 105 WK), Dose: 0, 625, 2500, 5000 PPM IN DIET FOR 105 WK (STUDY DURATION: 105 WK)) was “inactive; negative”, the carcinogen call (Species: RAT, Strain/Sex: F344/FEMALE, Route: ORAL, Dose: 0, 10,000 PPM FOR 26 WK (STUDY DURATION: 105 WK)) was “inactive; negative” and the carcinogen call (Species: RAT, Strain/Sex: F344/FEMALE, Route: ORAL, Dose: 0, 10000 PPM IN DIET FOR 26 WK (STUDY DURATION: 105 WK)) was “inactive; negative”. For the same compound, the carcinogen call (Species: RAT, Strain/Sex: F344/MALE, Route: ORAL, Dose: 0, 625, 2500, 5000 PPM IN DIET FOR 105 WK (STUDY DURATION: 105 WK), Dose: 0, 625, 2500, 5000 PPM IN DIET FOR 105 WK (STUDY DURATION: 105 WK), Tumor Site: Type of Lesion: KIDNEY: RENAL TUBULE ADENOMA) was “equivocal”, the carcinogen call (Species: RAT, Strain/Sex: F344/MALE, Route: ORAL, Dose: 0, 10000, PPM IN DIET FOR 26 WK (STUDY DURATION: 105 WK), Dose: 0, 10000, PPM IN DIET FOR 26 WK (STUDY DURATION: 105 WK), Tumor Site: Type of Lesion: KIDNEY: RENAL TUBULE ADENOMA) was “equivocal” and the carcinogen call (Species: RAT, Strain/Sex: F344/MALE, Route: ORAL, Dose: 0, 10,000 PPM FOR 26 WK (STUDY DURATION: 105 WK), Tumor Site: Type of Lesion: KIDNEY: RENAL TUBULE ADENOMA) was “active; positive”.
